BindingDB's records for PubMed 34998058 (Central South University, 2022)

What was measured:
[1] = Inhibition of P-gp in human K562 cells assessed as adriamycin IC50 at 4 ug/ml
[2] = Inhibition of P-gp in human K562 cells assessed as adriamycin IC50 at 10 ug/ml
[3] = Inhibition of P-gp in human K562/A02 cells assessed as adriamycin IC50 at 4 ug/ml
[4] = Inhibition of P-gp in human K562/A02 cells assessed as adriamycin IC50 at 2 ug/ml
[5] = Inhibition of P-gp in human K562/A02 cells assessed as adriamycin IC50 at 6 ug/ml
[6] = Inhibition of P-gp in human K562 cells assessed as adriamycin IC50 at 8 ug/ml
[7] = Inhibition of P-gp in human K562 cells assessed as adriamycin IC50 at 2 ug/ml
[8] = Inhibition of P-gp in human K562/A02 cells assessed as adriamycin IC50 at 8 ug/ml
[9] = Inhibition of P-gp in human K562 cells assessed as adriamycin IC50 at 6 ug/ml
[10] = Inhibition of P-gp in human K562/A02 cells assessed as adriamycin IC50 at 10 ug/ml
[11] = molecular target: Maltase-glucoamylase (Homo sapiens, UniProt O43451); test: Inhibition of alpha-glucosidase (unknown origin)
Maltase-glucoamylase, sequence (O43451 whole entry): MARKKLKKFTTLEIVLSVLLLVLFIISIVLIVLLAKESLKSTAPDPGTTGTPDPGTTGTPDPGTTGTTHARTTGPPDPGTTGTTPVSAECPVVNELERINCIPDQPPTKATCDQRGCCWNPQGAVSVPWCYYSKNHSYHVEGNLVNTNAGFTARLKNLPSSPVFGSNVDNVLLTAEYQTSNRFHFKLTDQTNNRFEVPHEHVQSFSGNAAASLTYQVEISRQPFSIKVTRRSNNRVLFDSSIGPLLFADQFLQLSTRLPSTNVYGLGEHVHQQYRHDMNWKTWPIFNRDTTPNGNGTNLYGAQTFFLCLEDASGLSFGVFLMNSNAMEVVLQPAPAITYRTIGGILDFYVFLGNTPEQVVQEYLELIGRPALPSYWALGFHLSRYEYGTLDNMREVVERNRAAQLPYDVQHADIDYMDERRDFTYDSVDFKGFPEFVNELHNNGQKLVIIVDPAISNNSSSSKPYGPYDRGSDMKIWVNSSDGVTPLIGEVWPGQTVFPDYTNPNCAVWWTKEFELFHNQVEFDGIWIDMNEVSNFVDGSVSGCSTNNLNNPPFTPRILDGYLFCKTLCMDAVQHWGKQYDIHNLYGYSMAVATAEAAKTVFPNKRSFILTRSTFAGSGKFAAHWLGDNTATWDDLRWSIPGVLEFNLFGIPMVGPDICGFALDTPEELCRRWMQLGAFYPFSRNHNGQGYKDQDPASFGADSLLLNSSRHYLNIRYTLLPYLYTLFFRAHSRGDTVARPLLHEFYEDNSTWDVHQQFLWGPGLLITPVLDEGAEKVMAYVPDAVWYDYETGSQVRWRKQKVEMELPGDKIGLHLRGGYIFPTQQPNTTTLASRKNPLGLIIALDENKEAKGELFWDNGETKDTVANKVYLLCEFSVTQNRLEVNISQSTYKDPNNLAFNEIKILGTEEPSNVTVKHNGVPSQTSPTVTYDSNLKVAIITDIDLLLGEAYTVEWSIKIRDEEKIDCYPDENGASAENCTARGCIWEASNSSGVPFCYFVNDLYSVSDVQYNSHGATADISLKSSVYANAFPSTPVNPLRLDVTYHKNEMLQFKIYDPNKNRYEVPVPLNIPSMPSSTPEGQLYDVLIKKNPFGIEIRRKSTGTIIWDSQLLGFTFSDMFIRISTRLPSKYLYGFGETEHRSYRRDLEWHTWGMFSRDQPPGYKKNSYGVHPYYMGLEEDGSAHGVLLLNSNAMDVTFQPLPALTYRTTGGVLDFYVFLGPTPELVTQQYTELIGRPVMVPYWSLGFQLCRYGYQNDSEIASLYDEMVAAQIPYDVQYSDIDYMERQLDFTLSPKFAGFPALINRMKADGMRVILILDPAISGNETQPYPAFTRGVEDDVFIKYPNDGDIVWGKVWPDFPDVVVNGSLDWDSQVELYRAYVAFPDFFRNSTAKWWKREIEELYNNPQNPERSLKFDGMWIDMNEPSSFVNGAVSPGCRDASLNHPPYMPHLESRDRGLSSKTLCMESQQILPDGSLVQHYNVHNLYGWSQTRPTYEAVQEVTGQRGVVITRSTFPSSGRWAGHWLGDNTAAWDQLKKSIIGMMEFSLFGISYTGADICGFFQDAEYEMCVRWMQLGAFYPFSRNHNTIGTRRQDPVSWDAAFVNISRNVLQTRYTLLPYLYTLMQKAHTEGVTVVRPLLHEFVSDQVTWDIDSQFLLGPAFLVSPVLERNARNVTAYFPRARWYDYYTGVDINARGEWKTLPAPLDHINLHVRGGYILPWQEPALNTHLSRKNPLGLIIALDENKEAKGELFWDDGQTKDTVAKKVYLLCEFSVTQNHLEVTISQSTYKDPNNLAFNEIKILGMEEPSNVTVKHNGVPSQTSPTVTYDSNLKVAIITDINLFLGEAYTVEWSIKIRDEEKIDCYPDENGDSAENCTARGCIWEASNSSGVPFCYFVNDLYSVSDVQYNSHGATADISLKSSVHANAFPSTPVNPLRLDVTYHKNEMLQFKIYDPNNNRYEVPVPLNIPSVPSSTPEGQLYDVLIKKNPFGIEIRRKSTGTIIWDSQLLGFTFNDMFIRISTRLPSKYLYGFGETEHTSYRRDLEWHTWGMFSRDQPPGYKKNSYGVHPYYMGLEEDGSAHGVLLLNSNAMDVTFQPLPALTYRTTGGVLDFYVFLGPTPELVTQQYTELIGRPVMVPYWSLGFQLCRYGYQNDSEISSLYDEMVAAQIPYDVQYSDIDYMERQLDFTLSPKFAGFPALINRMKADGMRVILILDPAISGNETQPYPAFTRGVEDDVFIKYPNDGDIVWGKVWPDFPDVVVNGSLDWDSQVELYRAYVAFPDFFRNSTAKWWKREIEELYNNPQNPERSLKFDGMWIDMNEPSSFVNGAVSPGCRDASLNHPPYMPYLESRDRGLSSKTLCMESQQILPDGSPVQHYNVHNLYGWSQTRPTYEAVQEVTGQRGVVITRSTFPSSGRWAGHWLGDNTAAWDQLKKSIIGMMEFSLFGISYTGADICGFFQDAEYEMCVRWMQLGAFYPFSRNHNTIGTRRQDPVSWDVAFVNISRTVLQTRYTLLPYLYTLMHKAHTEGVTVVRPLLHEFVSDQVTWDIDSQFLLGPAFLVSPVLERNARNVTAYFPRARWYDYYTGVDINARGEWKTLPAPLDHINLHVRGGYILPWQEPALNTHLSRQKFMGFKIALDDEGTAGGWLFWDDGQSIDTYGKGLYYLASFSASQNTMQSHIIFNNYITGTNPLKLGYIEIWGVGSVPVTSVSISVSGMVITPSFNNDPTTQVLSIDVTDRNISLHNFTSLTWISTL

With `Cc1ccc2[nH]c(=O)c(C)nc2c1` the IC50 [1] was 0.746 µM, the IC50 [2] was 0.688 µM and the IC50 [3] was 15 µM. For the same compound, the IC50 [4] was 20.1 µM, the IC50 [5] was 10.5 µM and the IC50 [6] was 0.746 µM. The IC50 [7] was 0.803 µM, the IC50 [8] was 8.95 µM and the IC50 [9] was 0.516 µM. It also gave an IC50 [10] of 7.8 µM.
In the case of `Cc1nc2cc(F)ccc2[nH]c1=O`, the IC50 [1] is reported as 0.673 µM, the IC50 [2] is reported as 0.561 µM and the IC50 [3] is reported as 9.03 µM. For the same compound, the IC50 [4] was 12.9 µM, the IC50 [5] was 7.52 µM and the IC50 [6] was 0.729 µM. It also gave an IC50 [7] of 0.785 µM, an IC50 [8] of 5.78 µM and an IC50 [9] of 0.841 µM. It also gave an IC50 [10] of 6.28 µM.
`COc1ccc(C(=O)Nc2cccc(C(=O)/C=C3/Nc4ccccc4NC3=O)c2)cc1` gave an IC50 [11] of 166 µM.
`O=C(/C=C/c1ccccc1)/C=C1/Nc2ccccc2NC1=O` showed an IC50 [11] of 40.1 µM.
For `COc1ccc(C2SCC(=O)N2c2ccc3nc(Cc4ccc(O)cc4)c(=O)[nH]c3c2)cc1` (centres undefined), the IC50 [11] was 276 µM.
Work on `CC(C)c1nc2ccc(N3C(=O)CSC3c3ccc([N+](=O)[O-])cc3)cc2[nH]c1=O` (centres undefined) yielded an IC50 [11] of 301 µM.
Compound `O=c1[nH]c2ccccc2nc1N/N=C/c1cccs1` has an IC50 [11] of 9.99 µM.
`COc1cccc(/C=N/Nc2nc3ccccc3[nH]c2=O)c1` showed an IC50 [11] of 13.9 µM.
For `O=c1[nH]c2ccccc2n2c(-c3ccc([N+](=O)[O-])cc3[N+](=O)[O-])ccc12`, the IC50 [11] was 23 µM.
`O=c1[nH]c2ccccc2n2c(-c3ccc(O)cc3O)ccc12` showed an IC50 [11] of 12.9 µM.
Work on `O=c1[nH]c2ccccc2n2c(-c3ccc(Cl)c(Cl)c3)ccc12` yielded an IC50 [11] of 13 µM.
With `Cc1ccc(NC(=O)Cn2c(=O)c(C)nc3ccccc32)c([N+](=O)[O-])c1` the IC50 [11] was 83.8 µM.
Compound `Cc1nc2ccccc2n(CC(=O)N/N=C/c2ccc(OCCn3cc(CN4CCOCC4)nn3)cc2)c1=O` has an IC50 [11] of 41.3 µM.
Work on `Cc1nc2ccccc2n(CC(=O)N/N=C/c2ccc(OCCn3cc(CN4CCCCC4)nn3)cc2)c1=O` yielded an IC50 [11] of 42.2 µM.
With `Cc1nc2ccccc2n(CC(=O)N/N=C/c2ccc(OCCn3cc(CN4CCCC4)nn3)cc2)c1=O` the IC50 [11] was 45.8 µM.
With `Cc1ccc(-n2cc(COc3ccc(/C=N/NC(=O)Cn4c(=O)c(C)nc5ccccc54)cc3)nn2)cc1` the IC50 [11] was 48.2 µM.
